Test results: ChEMBL document CHEMBL3137667, “[Drug-induced liver injury; fourteenth updated edition of the bibliographic database of liver injuries and related drugs]” (Gastroenterol Clin Biol, 2004)

Columns and labels:
[1] = human
[2] = human, serum
[3] = Times to onset, minimal and maximal, observed in the indexed observations. [column 'DELAI' in source]; conditions: human
[4] = human, serum; remark: listed apart in the source
[5] = human; remark: listed apart in the source
[6] = human; remark: listed apart in the source
[7] = human; remark: listed apart in the source
[8] = Proposed mechanism(s) of liver damage. [column 'MEC' in source]; conditions: human
[9] = human; remark: listed apart in the source
[10] = Highest frequency of moderate liver toxicity observed during clinical trials, expressed as a percentage. [column '% BIOL' in source]; conditions: human
[11] = human; remark: listed apart in the source
[12] = Highest frequency of acute liver toxicity observed during clinical trials, expressed as a percentage. [column '% AIGUE' in source]; conditions: human
[13] = Comments (NB not yet translated). [column 'COMMENTAIRES' in source]; conditions: human
[14] = human; remark: listed apart in the source
[15] = human, serum, 4383 h
[16] = human; remark: listed apart in the source
[17] = human; remark: listed apart in the source
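Throughout, for Hepatotoxicity (association with vascular disease): count of indexed literature references reporting vascular liver injury in humans, e.g. peliosis hepatitis, hepatic veno-occlusive disease or Budd-Chiari syndrome.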
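Throughout, for Hepatotoxicity (benign tumour): value is a count of indexed literature references citing a benign tumour confirmed by histopathology.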
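Throughout, for Hepatotoxicity (choleostasis): human cholestatic liver injury, shown by histopathology or by peak ALT or AST elevation over alkaline phosphatase ratio below 2, value counts indexed literature reports.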
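Throughout, for Hepatotoxicity (chronic liver disease): chronic liver injury confirmed by histopathology or persistently raised serum aminotransferase activity beyond 6 months, value given as the count of indexed literature references.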
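Throughout, for Hepatotoxicity (cirrhosis): value is a count of indexed literature references reporting cirrhosis confirmed by histopathology.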
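Throughout, for Hepatotoxicity (cytolytic): human cytolytic liver injury, shown by histopathology or by a ratio above 5 of peak ALT or AST elevation to alkaline phosphatase elevation, value counts indexed references.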
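Throughout, for Hepatotoxicity (granulomatous hepatitis): value is a count of indexed literature references reporting granulomatous liver disease confirmed by histopathology.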
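Throughout, for Hepatotoxicity (malignant tumour): malignant tumour confirmed by histopathology, value gives the count of indexed literature references reporting it.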
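Throughout, for Hepatotoxicity (severe hepatitis): human clinical data: severe hepatitis, meaning potentially life-threatening liver failure or clinically observed cases, the value counts how many indexed literature references report it.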
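Throughout, for Hepatotoxicity (steatosis): steatosis confirmed by histopathology, value is the count of indexed references.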

## Cc1c(C)c2c(c(C)c1O)CC[C@@](C)(CCC[C@H](C)CCC[C@H](C)CCCC(C)C)O2 [ALPHA-TOCOPHEROL]
[1]; Liver
  Hepatotoxicity (granulomatous hepatitis): 0
[2]
  Hepatotoxicity (acute): 3
[3]
  Hepatotoxicity (time to onset): 1 week - 2 months
[4]
  Hepatotoxicity (moderate): 0
[5]
  Hepatotoxicity (association with vascular disease): 0
[6]; Liver
  Hepatotoxicity (choleostasis): 3
[7]
  Hepatotoxicity (cirrhosis): 0
[8]; Liver
  Hepatotoxicity (mechanism): Dose-dependant
[9]
  Hepatotoxicity (malignant tumour): 0
[10]; Liver
  Hepatotoxicity (moderate): 0%
[11]; Liver
  Hepatotoxicity (cytolytic): 3
[12]; Liver
  Hepatotoxicity (acute): 0%
[13]
  Hepatotoxicity (comment): CONCERNE_E-FEROL*
[14]
  Hepatotoxicity (benign tumour): 0
[15]
  Hepatotoxicity (chronic liver disease): 0
[16]
  Hepatotoxicity (steatosis): 0
[17]; Liver
  Hepatotoxicity (severe hepatitis): 4

## CCCN(CCC)C(=O)Cc1c(-c2ccc(Cl)cc2)nc2ccc(Cl)cn12 [ALPIDEM]
[1]
  Hepatotoxicity (granulomatous hepatitis): 0
[2]
  Hepatotoxicity (acute): 5
[3]
  Hepatotoxicity (time to onset): 1 month - 8 months
[4]
  Hepatotoxicity (moderate): 0
[5]
  Hepatotoxicity (association with vascular disease): 0
[6]
  Hepatotoxicity (choleostasis): 0
[7]
  Hepatotoxicity (cirrhosis): 0
[8]
  Hepatotoxicity (mechanism): Allergic
[9]
  Hepatotoxicity (malignant tumour): 0
[10]
  Hepatotoxicity (moderate): 0%
[11]
  Hepatotoxicity (cytolytic): 4
[12]
  Hepatotoxicity (acute): 0%
[13]
  Hepatotoxicity (comment): AC_ANTI-N
[14]
  Hepatotoxicity (benign tumour): 0
[15]
  Hepatotoxicity (chronic liver disease): 0
[16]
  Hepatotoxicity (steatosis): 0
[17]
  Hepatotoxicity (severe hepatitis): 5

## CCOC(=O)C1=C(COCCN)NC(C)=C(C(=O)OC)C1c1ccccc1Cl (stereo not given) [AMLODIPINE]
[1]
  Hepatotoxicity (granulomatous hepatitis): 0
[2]
  Hepatotoxicity (acute): 4
[3]
  Hepatotoxicity (time to onset): 1 month - 10 months
[4]
  Hepatotoxicity (moderate): 2
[5]
  Hepatotoxicity (association with vascular disease): 0
[6]
  Hepatotoxicity (choleostasis): 2
[7]
  Hepatotoxicity (cirrhosis): 0
[8]
  Hepatotoxicity (mechanism): Allergic
[9]
  Hepatotoxicity (malignant tumour): 0
[10]; Liver
  Hepatotoxicity (moderate): 12.8%
[11]
  Hepatotoxicity (cytolytic): 3
[12]; Liver
  Hepatotoxicity (acute): 0%
[13]
  Hepatotoxicity (comment): CHOLANGIOLITE AC_ANTI-M/-N RC/DILTIAZEM
[14]
  Hepatotoxicity (benign tumour): 0
[15]
  Hepatotoxicity (chronic liver disease): 0
[16]
  Hepatotoxicity (steatosis): 0
[17]; Liver
  Hepatotoxicity (severe hepatitis): 0

## CC1(C)S[C@@H]2[C@H](NC(=O)[C@H](N)c3ccc(O)cc3)C(=O)N2[C@H]1C(=O)O [AMOXICILLIN]
[1]
  Hepatotoxicity (granulomatous hepatitis): 1
[2]
  Hepatotoxicity (acute): 10
[3]
  Hepatotoxicity (time to onset): 3 days - 8 weeks
[4]
  Hepatotoxicity (moderate): 7
[5]
  Hepatotoxicity (association with vascular disease): 0
[6]
  Hepatotoxicity (choleostasis): 7
[7]
  Hepatotoxicity (cirrhosis): 0
[8]
  Hepatotoxicity (mechanism): Allergic
[9]
  Hepatotoxicity (malignant tumour): 0
[10]; Liver
  Hepatotoxicity (moderate): 8%
[11]
  Hepatotoxicity (cytolytic): 2
[12]; Liver
  Hepatotoxicity (acute): 0%
[13]
  Hepatotoxicity (comment): CHOLESTASE_PROLONGEE CHOLANGITE DUCTOPENIE RC/ERYTHROMYCINE
[14]
  Hepatotoxicity (benign tumour): 0
[15]
  Hepatotoxicity (chronic liver disease): 1
[16]
  Hepatotoxicity (steatosis): 0
[17]; Liver
  Hepatotoxicity (severe hepatitis): 1

## CC(C)c1c(C(=O)Nc2ccccc2)c(-c2ccccc2)c(-c2ccc(F)cc2)n1CC[C@@H](O)C[C@@H](O)CC(=O)O [ATORVASTATIN]
[1]
  Hepatotoxicity (granulomatous hepatitis): 0
[2]
  Hepatotoxicity (acute): 10
[3]
  Hepatotoxicity (time to onset): 6 days - 7 months
[4]
  Hepatotoxicity (moderate): 36
[5]
  Hepatotoxicity (association with vascular disease): 0
[6]
  Hepatotoxicity (choleostasis): 6
[7]
  Hepatotoxicity (cirrhosis): 1
[8]
  Hepatotoxicity (mechanism): Allergic
[9]
  Hepatotoxicity (malignant tumour): 0
[10]
  Hepatotoxicity (moderate): 13.6%
[11]
  Hepatotoxicity (cytolytic): 5
[12]
  Hepatotoxicity (acute): 1.8%
[13]
  Hepatotoxicity (comment): AC_ANTI-N/-ML
[14]
  Hepatotoxicity (benign tumour): 0
[15]
  Hepatotoxicity (chronic liver disease): 1
[16]
  Hepatotoxicity (steatosis): 0
[17]
  Hepatotoxicity (severe hepatitis): 1

## CC[C@H]1OC(=O)[C@H](C)[C@@H](O[C@H]2C[C@@](C)(OC)[C@@H](O)[C@H](C)O2)[C@H](C)[C@@H](O[C@@H]2O[C@H](C)C[C@H](N(C)C)[C@H]2O)[C@](C)(O)C[C@@H](C)CN(C)[C@H](C)[C@@H](O)[C@]1(C)O [AZITHROMYCIN]
[1]
  Hepatotoxicity (granulomatous hepatitis): 0
[2]
  Hepatotoxicity (acute): 5
[3]
  Hepatotoxicity (time to onset): 3 days - 18 days
[4]
  Hepatotoxicity (moderate): 53
[5]
  Hepatotoxicity (association with vascular disease): 0
[6]
  Hepatotoxicity (choleostasis): 4
[7]
  Hepatotoxicity (cirrhosis): 0
[8]
  Hepatotoxicity (mechanism): Allergic
[9]
  Hepatotoxicity (malignant tumour): 0
[10]
  Hepatotoxicity (moderate): 40%
[11]
  Hepatotoxicity (cytolytic): 0
[12]
  Hepatotoxicity (acute): 0%
[13]
  Hepatotoxicity (comment): CHOLANGITE
[14]
  Hepatotoxicity (benign tumour): 0
[15]
  Hepatotoxicity (chronic liver disease): 0
[16]
  Hepatotoxicity (steatosis): 0
[17]
  Hepatotoxicity (severe hepatitis): 0

## CO[C@@]1(NC(=O)Cc2cccs2)C(=O)N2C(C(=O)O)=C(COC(N)=O)CS[C@@H]21 [CEFOXITIN]
[1]
  Hepatotoxicity (granulomatous hepatitis): 0
[2]
  Hepatotoxicity (acute): 1
[3]
  Hepatotoxicity (time to onset): 17 days
[4]
  Hepatotoxicity (moderate): 18
[5]
  Hepatotoxicity (association with vascular disease): 0
[6]
  Hepatotoxicity (choleostasis): 1
[7]
  Hepatotoxicity (cirrhosis): 0
[8]
  Hepatotoxicity (mechanism): Allergic
[9]
  Hepatotoxicity (malignant tumour): 0
[10]
  Hepatotoxicity (moderate): 25.8%
[11]
  Hepatotoxicity (cytolytic): 0
[12]
  Hepatotoxicity (acute): 0%
[13]
  Hepatotoxicity (comment): CHOLESTASE_PROLONGEE
[14]
  Hepatotoxicity (benign tumour): 0
[15]
  Hepatotoxicity (chronic liver disease): 0
[16]
  Hepatotoxicity (steatosis): 0
[17]
  Hepatotoxicity (severe hepatitis): 0

## CC(=O)OCC1=C(C(=O)O)N2C(=O)[C@@H](NC(=O)Cc3cccs3)[C@H]2SC1 [CEPHALOTHIN]
[1]
  Hepatotoxicity (granulomatous hepatitis): 0
[2]
  Hepatotoxicity (acute): 4
[3]
  Hepatotoxicity (time to onset): 1 day - 1 month
[4]
  Hepatotoxicity (moderate): 4
[5]
  Hepatotoxicity (association with vascular disease): 0
[6]
  Hepatotoxicity (choleostasis): 1
[7]
  Hepatotoxicity (cirrhosis): 0
[8]
  Hepatotoxicity (mechanism): Allergic
[9]
  Hepatotoxicity (malignant tumour): 0
[10]
  Hepatotoxicity (moderate): 1.5%
[11]
  Hepatotoxicity (cytolytic): 1
[12]
  Hepatotoxicity (acute): 0%
[13]
  Hepatotoxicity (comment): RC/NAFCILLINE/OXACILLINE/CEFAPIRINE
[14]
  Hepatotoxicity (benign tumour): 0
[15]
  Hepatotoxicity (chronic liver disease): 0
[16]
  Hepatotoxicity (steatosis): 0
[17]
  Hepatotoxicity (severe hepatitis): 0

## CC1=C(C(=O)O)N2C(=O)[C@@H](NC(=O)[C@H](N)C3=CCC=CC3)[C@H]2SC1 [CEPHRADINE]
[1]
  Hepatotoxicity (granulomatous hepatitis): 0
[2]
  Hepatotoxicity (acute): 1
[3]
  Hepatotoxicity (time to onset): 3 weeks
[4]
  Hepatotoxicity (moderate): 1
[5]
  Hepatotoxicity (association with vascular disease): 0
[6]
  Hepatotoxicity (choleostasis): 1
[7]
  Hepatotoxicity (cirrhosis): 0
[8]
  Hepatotoxicity (mechanism): Allergic
[9]
  Hepatotoxicity (malignant tumour): 0
[10]
  Hepatotoxicity (moderate): 24.3%
[11]
  Hepatotoxicity (cytolytic): 0
[12]
  Hepatotoxicity (acute): 0%
[13]
  Hepatotoxicity (comment): CHOLECYSTITE_A_EOSINOPHILES
[14]
  Hepatotoxicity (benign tumour): 0
[15]
  Hepatotoxicity (chronic liver disease): 0
[16]
  Hepatotoxicity (steatosis): 0
[17]
  Hepatotoxicity (severe hepatitis): 0

## Cc1cnc(C(=O)NCCc2ccc(S(=O)(=O)NC(=O)NC3CCCCC3)cc2)cn1 [GLIPIZIDE]
[1]
  Hepatotoxicity (granulomatous hepatitis): 0
[3]
  Hepatotoxicity (time to onset): 2 days - 5 months
[4]
  Hepatotoxicity (moderate): 1
[5]
  Hepatotoxicity (association with vascular disease): 0
[6]
  Hepatotoxicity (choleostasis): 0
[7]
  Hepatotoxicity (cirrhosis): 0
[8]
  Hepatotoxicity (mechanism): Allergic
[9]
  Hepatotoxicity (malignant tumour): 0
[10]; Liver
  Hepatotoxicity (moderate): 0%
[11]
  Hepatotoxicity (cytolytic): 3
[13]
  Hepatotoxicity (comment): AC_ANTI-ML
[14]
  Hepatotoxicity (benign tumour): 0
[15]
  Hepatotoxicity (chronic liver disease): 0
[16]
  Hepatotoxicity (steatosis): 0
[17]; Liver
  Hepatotoxicity (severe hepatitis): 2

## O=C(Nc1ccc(Cl)cc1)NS(=O)(=O)c1ccc2c(c1)CCC2 [SULOFENUR]
[1]
  Hepatotoxicity (granulomatous hepatitis): 0
[2]
  Hepatotoxicity (acute): 6
[4]
  Hepatotoxicity (moderate): 9
[5]
  Hepatotoxicity (association with vascular disease): 0
[6]
  Hepatotoxicity (choleostasis): 3
[7]
  Hepatotoxicity (cirrhosis): 0
[8]
  Hepatotoxicity (mechanism): Dose-dependant
[9]
  Hepatotoxicity (malignant tumour): 0
[10]
  Hepatotoxicity (moderate): 80%
[11]
  Hepatotoxicity (cytolytic): 4
[12]
  Hepatotoxicity (acute): 18.8%
[13]
  Hepatotoxicity (comment): CHOLANGITE
[14]
  Hepatotoxicity (benign tumour): 0
[15]
  Hepatotoxicity (chronic liver disease): 0
[16]
  Hepatotoxicity (steatosis): 0
[17]
  Hepatotoxicity (severe hepatitis): 0

## RITUXIMAB
[1]
  Hepatotoxicity (granulomatous hepatitis): 0
[2]
  Hepatotoxicity (acute): 4
[3]
  Hepatotoxicity (time to onset): 2 months - 7 months
[4]
  Hepatotoxicity (moderate): 1
[5]
  Hepatotoxicity (association with vascular disease): 0
[6]
  Hepatotoxicity (choleostasis): 0
[7]
  Hepatotoxicity (cirrhosis): 0
[9]
  Hepatotoxicity (malignant tumour): 0
[10]
  Hepatotoxicity (moderate): 5.6%
[11]
  Hepatotoxicity (cytolytic): 4
[12]
  Hepatotoxicity (acute): 0%
[13]
  Hepatotoxicity (comment): REACTIVATION_HVB
[14]
  Hepatotoxicity (benign tumour): 0
[15]
  Hepatotoxicity (chronic liver disease): 0
[16]
  Hepatotoxicity (steatosis): 0
[17]
  Hepatotoxicity (severe hepatitis): 3
